Results reported in ChEMBL document CHEMBL4828703, “Structure-activity relationship study of THZ531 derivatives enables the discovery of BSJ-01-175 as a dual CDK12/13 covalent inhibitor with efficacy in Ewing sarcoma” (Eur J Med Chem, 2021).
Activity calls are given as the source filed them. The calls are words filed in the database; no cut-off is given here.

Assays:
[1] = molecular target: T1, Cyclin-dependent kinase 12/13 (Homo sapiens) (UniProt Q14004+Q9NYV4); experiment: Inhibition of THZ1-biotin binding from CDK12/13 in human Jurkat cells incubated for 3 hrs followed by drug wash-out for 24 hrs by competitive pull down assay; format: cell-based
[2] = molecular target: Serine/threonine-protein kinase 10 (Homo sapiens) (UniProt O94804); experiment: Inhibition of ADP(ATP)-biotin probe binding to LOK in human Kelly cells at 1 uM incubated for 6 hrs by KiNativ profiling analysis; format: cell-based
Chain of Serine/threonine-protein kinase 10 (Homo sapiens) (O94804 whole entry, looked up): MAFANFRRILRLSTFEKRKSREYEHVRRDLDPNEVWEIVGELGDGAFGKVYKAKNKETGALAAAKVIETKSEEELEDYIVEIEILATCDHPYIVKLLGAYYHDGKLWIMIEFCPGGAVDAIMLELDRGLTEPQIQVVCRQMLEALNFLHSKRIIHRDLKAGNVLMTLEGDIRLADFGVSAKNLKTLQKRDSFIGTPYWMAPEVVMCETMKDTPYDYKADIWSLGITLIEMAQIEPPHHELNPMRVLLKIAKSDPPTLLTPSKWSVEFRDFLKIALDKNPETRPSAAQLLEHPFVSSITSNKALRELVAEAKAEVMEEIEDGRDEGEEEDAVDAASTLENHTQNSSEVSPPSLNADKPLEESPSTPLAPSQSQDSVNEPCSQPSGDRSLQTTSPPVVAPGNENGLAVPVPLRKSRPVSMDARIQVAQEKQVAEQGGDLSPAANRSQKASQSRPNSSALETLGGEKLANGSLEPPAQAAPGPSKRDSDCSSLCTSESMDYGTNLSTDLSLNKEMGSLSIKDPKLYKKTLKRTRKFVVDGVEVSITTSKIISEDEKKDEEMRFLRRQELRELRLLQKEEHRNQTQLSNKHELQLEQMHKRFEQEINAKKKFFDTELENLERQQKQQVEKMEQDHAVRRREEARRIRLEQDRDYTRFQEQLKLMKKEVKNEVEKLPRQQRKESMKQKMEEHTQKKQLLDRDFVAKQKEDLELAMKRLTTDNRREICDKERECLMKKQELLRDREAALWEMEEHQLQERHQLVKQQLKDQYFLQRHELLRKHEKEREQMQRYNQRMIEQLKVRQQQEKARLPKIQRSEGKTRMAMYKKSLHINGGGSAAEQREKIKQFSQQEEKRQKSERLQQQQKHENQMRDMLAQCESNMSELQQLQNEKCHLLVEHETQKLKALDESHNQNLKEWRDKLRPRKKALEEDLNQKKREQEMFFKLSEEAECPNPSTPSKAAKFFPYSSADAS

[3] = Downregulation of RNA polymerase 2 CTD phosphorylation at Ser7 residue in human Jurkat cells at 1 uM incubated for 6 hrs by immunoblotting analysis; format: functional
[4] = Downregulation of RNA polymerase 2 in human Jurkat cells at 5 uM measured after 6 hrs by immunoblotting analysis; format: functional
[5] = molecular target: T2, Ribosomal protein S6 kinase alpha-3 (Homo sapiens, UniProt P51812); experiment: Inhibition of ADP(ATP)-biotin probe binding to RSK2 domain 1 in human Kelly cells at 1 uM incubated for 6 hrs by KiNativ profiling analysis; format: cell-based
T2 sequence (P51812 whole entry, the tested form may be a part): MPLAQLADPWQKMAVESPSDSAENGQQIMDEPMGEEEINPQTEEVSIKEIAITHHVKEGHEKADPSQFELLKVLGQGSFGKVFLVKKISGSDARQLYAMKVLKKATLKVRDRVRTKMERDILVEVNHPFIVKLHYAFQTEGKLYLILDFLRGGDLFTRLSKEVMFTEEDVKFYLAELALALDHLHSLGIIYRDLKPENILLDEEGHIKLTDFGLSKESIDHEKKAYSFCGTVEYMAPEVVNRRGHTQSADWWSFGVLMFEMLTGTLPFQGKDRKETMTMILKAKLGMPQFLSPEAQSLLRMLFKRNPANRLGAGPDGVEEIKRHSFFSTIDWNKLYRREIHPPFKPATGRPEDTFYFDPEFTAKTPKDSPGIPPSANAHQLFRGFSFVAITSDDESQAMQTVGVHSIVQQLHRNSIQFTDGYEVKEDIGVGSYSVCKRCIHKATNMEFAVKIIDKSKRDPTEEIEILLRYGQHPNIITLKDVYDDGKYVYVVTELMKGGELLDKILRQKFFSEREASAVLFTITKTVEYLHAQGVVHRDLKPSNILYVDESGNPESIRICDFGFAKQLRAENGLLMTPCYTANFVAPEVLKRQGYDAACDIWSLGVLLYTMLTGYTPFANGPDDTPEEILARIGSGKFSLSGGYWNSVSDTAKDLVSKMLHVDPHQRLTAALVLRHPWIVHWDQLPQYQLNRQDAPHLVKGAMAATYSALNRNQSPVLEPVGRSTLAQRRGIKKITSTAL

[6] = molecular target: STE20-related kinase adapter protein beta (Homo sapiens) (UniProt Q9C0K7); experiment: Inhibition of ADP(ATP)-biotin probe binding to STLK6 in human Kelly cells at 1 uM incubated for 6 hrs by KiNativ profiling analysis; format: cell-based
Chain of STE20-related kinase adapter protein beta (Homo sapiens) (Q9C0K7 whole entry): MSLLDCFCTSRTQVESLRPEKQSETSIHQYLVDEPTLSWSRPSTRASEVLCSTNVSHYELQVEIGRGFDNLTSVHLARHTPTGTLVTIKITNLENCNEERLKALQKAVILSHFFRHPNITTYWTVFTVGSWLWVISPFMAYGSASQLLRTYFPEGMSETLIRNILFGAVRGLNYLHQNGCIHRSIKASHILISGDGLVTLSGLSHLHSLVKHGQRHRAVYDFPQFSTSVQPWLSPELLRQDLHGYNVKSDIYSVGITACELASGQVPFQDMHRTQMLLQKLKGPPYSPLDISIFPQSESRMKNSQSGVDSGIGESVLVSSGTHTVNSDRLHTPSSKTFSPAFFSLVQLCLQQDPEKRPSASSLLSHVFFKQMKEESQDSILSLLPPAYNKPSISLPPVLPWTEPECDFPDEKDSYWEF

[7] = molecular target: T1, Cyclin-dependent kinase 12/13 (Homo sapiens); experiment: Inhibition of CDK12/13 in human Jurkat cells assessed as BRCA1 gene expression at 0.5 to 1 uM incubated for 4 hrs by RT-qPCR analysis; format: cell-based; design: scale not given: the % may be the effect or the level left; conditions: dose 0.5-1 µM
[8] = molecular target: Cyclin-dependent kinase 12 (Homo sapiens) (UniProt Q9NYV4); experiment: Covalent binding affinity to CDK12 in CDK12/CyclinK complex (unknown origin) assessed as covalent labeling of Cys1039 in gluc-protease digested CDK12 peptide 1025LASKMAPPDLPHWQDCHE1041 by CE-MS analysis
Chain of Cyclin-dependent kinase 12 (Homo sapiens) (Q9NYV4 whole entry, looked up): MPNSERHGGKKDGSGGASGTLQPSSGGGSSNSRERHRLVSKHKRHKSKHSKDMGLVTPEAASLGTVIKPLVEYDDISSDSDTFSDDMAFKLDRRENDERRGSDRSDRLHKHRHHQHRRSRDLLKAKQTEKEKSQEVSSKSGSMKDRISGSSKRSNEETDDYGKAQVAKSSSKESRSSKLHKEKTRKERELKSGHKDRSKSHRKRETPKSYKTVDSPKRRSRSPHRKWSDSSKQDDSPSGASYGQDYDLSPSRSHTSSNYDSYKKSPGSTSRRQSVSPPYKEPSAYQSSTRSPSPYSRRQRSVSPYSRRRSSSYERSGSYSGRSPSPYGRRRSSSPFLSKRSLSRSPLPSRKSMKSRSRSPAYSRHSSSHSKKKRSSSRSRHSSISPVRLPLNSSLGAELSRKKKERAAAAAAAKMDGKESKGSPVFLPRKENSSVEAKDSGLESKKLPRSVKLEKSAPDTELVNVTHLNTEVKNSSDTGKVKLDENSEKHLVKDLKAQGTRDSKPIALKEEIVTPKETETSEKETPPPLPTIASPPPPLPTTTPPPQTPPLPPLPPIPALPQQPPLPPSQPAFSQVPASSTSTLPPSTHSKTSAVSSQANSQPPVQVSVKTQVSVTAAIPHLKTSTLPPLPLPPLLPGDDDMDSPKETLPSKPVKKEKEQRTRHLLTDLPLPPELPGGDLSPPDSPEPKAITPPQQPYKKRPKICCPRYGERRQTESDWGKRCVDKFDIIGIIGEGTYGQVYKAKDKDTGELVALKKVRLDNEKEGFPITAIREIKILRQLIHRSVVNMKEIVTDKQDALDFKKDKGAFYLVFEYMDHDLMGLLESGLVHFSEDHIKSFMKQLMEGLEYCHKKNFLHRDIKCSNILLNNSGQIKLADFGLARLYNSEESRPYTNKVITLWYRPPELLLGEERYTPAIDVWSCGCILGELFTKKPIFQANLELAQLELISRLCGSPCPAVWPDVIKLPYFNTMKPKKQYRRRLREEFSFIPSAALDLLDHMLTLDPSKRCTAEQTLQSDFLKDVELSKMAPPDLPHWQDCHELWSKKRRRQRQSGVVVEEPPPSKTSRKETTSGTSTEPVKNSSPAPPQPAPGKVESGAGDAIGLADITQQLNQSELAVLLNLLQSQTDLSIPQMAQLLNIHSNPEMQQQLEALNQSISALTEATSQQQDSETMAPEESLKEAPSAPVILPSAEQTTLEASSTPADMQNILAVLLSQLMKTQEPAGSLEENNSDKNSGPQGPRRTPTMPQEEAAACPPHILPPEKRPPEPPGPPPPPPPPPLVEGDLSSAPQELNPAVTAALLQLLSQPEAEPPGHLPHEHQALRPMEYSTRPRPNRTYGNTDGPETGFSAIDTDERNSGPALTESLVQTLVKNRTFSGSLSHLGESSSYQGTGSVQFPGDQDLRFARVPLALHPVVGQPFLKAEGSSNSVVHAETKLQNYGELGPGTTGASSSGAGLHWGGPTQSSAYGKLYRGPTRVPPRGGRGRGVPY

[9] = Downregulation of RNA polymerase 2 CTD phosphorylation at Ser7 residue in human Jurkat cells at 5 uM incubated for 6 hrs by immunoblotting analysis; format: functional
[10] = molecular target: Calcium/calmodulin-dependent protein kinase type IV (Homo sapiens) (UniProt Q16566); experiment: Inhibition of ADP(ATP)-biotin probe binding to CaMK4 in human Kelly cells at 1 uM incubated for 6 hrs by KiNativ profiling analysis; format: cell-based
Chain of Calcium/calmodulin-dependent protein kinase type IV (Homo sapiens) (Q16566 whole entry): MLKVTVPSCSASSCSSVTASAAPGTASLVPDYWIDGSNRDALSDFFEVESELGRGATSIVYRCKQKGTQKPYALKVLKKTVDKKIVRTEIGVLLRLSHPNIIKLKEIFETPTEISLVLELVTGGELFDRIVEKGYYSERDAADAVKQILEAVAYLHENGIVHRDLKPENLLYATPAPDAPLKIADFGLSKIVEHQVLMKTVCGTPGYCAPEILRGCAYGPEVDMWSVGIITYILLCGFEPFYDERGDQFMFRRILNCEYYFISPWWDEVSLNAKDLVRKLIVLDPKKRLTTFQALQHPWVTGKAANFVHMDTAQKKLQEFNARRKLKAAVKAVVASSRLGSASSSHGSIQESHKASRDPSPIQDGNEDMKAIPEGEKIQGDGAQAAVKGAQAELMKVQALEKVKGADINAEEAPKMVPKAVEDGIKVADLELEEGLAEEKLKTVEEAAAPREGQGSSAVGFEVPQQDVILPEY

[11] = molecular target: RAF proto-oncogene serine/threonine-protein kinase (Homo sapiens) (UniProt P04049); experiment: Inhibition of ADP(ATP)-biotin probe binding to RAF1 in human Kelly cells at 1 uM incubated for 6 hrs by KiNativ profiling analysis; format: cell-based
[12] = Antiproliferative activity against human Kelly cells harboring wild type CDK12 assessed as reduction in cell viability incubated for 72 hrs by CelTiter-Glo assay; format: functional, cell-based
[13] = AUClast in Swiss albino mouse at 10 mg/kg, po measured upto 24 hrs by LC-MS/MS analysis; format: ADME, organism-based; design: route oral, dose 10 mg/kg, time <=24; conditions: in vivo
[14] = Downregulation of RNA polymerase 2 in human Jurkat cells at 1 uM measured after 6 hrs by immunoblotting analysis; format: functional
[15] = molecular target: Ribosomal protein S6 kinase alpha-4 (Homo sapiens) (UniProt O75676); experiment: Inhibition of ADP(ATP)-biotin probe binding to MSK2 domain 1 in human Kelly cells at 1 uM incubated for 6 hrs by KiNativ profiling analysis; format: cell-based
Chain of Ribosomal protein S6 kinase alpha-4 (Homo sapiens) (O75676 whole entry, looked up, the tested form may be a part): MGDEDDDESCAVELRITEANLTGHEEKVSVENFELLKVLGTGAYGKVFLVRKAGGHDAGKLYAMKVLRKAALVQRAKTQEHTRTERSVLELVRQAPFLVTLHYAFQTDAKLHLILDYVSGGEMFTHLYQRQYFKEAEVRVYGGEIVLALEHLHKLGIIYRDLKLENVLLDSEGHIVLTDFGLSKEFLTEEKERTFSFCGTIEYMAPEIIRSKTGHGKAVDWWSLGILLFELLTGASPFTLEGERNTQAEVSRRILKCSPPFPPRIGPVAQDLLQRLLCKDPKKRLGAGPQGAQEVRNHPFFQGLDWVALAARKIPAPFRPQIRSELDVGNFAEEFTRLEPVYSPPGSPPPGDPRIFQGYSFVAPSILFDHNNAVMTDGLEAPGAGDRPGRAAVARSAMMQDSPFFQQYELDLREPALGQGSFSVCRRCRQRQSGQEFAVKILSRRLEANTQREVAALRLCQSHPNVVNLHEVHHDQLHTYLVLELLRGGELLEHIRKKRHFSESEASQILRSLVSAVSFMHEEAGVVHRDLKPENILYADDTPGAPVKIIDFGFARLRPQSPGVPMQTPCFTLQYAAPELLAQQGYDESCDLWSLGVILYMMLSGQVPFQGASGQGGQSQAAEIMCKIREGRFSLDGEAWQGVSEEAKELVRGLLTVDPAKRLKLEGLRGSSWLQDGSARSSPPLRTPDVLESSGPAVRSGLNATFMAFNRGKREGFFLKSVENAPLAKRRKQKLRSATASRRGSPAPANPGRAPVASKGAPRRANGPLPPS

[16] = molecular target: T2, Ribosomal protein S6 kinase alpha-3; experiment: Inhibition of human RSK2 by Invitrogen ADAPTA or Z'LYTE biochemical kinase assay
[17] = Oral bioavailability in Swiss albino mouse at 10 mg/kg measured upto 24 hrs by LC-MS/MS analysis; format: ADME, organism-based; conditions: in vivo
[18] = molecular target: Cyclin-dependent kinase 12 (Homo sapiens) (UniProt Q9NYV4); experiment: Inhibition of ADP(ATP)-biotin probe binding to CDK12 in human Kelly cells at 1 uM incubated for 6 hrs by KiNativ profiling analysis; format: cell-based
[19] = Downregulation of RNA polymerase 2 CTD phosphorylation at Ser5 residue in human Jurkat cells at 5 uM incubated for 6 hrs by immunoblotting analysis; format: functional
[20] = molecular target: Cyclin-dependent kinase 7 (Homo sapiens) (UniProt P50613); experiment: Inhibition of ADP(ATP)-biotin probe binding to CDK7 in human Kelly cells at 1 uM incubated for 6 hrs by KiNativ profiling analysis; format: cell-based
[21] = Antiproliferative activity against human Kelly cells harboring CDK12 C1039F mutant assessed as reduction in cell viability incubated for 72 hrs by CellTiter-Glo assay; format: functional, cell-based
[22] = Downregulation of RNA polymerase 2 CTD phosphorylation at Ser7 residue in human Jurkat cells at 0.5 uM incubated for 6 hrs by immunoblotting analysis; format: functional
[23] = Tmax in Swiss albino mouse at 10 mg/kg, po measured upto 24 hrs by LC-MS/MS analysis; format: ADME, organism-based; conditions: in vivo
[24] = molecular target: Cyclin-dependent kinase 13/Cyclin-K (Homo sapiens, UniProt Q14004); experiment: Inhibition of human recombinant CDK13/CyclinK assessed as reduction in substrate phosphorylation using His-c-Myc as substrate preincubated with enzyme for 5 mins followed by substrate addition for 15 mins in presence of [gamma 32P-ATP] by radioactive kinase assay; format: protein-complex assay
[25] = Downregulation of RNA polymerase 2 in human Jurkat cells at 2.5 uM measured after 6 hrs by immunoblotting analysis; format: functional

CN(C)C/C=C/C(=O)Nc1ccc(O[C@@H]2CCC[C@@H](Nc3ncc(Cl)c(-c4c[nH]c5ccccc45)n3)C2)cc1
inhibition [1]: Active | inhibition [2]: 33.9% | inhibition at 1 µM [3]: 41% | inhibition at 5 µM [4]: 38% | inhibition [5]: 46% | inhibition [6]: 44.5% | Activity [7]: 30% | Activity [8]: Active | inhibition at 5 µM [9]: 74% | inhibition [10]: 38.2% | inhibition [11]: 37.8% | IC50 [12]: 42.2 nM | AUClast [13]: 1043 ng·h/mL | inhibition at 1 µM [14]: 13% | inhibition [15]: 40.3% | IC50 [16]: 4500 nM | F [17]: 17% | inhibition [18]: 76.8% | inhibition at 5 µM [19]: 47% | inhibition [20]: 39.2% | IC50 [21]: 225 nM | inhibition at 0.5 µM [22]: 0% | Tmax [23]: 2 h | IC50 [24]: 283 nM | inhibition at 2.5 µM [25]: 15%
